Laboratory results reported in patent US12161722B2, “Bifunctional heterocyclic compound having BTK degradation function via ubiquitin proteasome pathway, and use thereof” (KOREA RESEARCH INSTITUTE OF CHEMICAL TECHNOLOGY, priority 2021, dated 2024).

Biological target: T1, WT BTK protein (Homo sapiens, UniProt Q06187)
T1 construct: measured for intracellular BTK protein levels by Western blotting; endogenous in cells; host or cells: TMD-8 or RAMOS cells
Test: BTK protein degradation assay (Western blotting), WT BTK
Format: cell-based
Settings: concentration range accounting for 50% degradation of WT BTK protein, TMD-8 or RAMOS cells, 24 hours
Procedure: TMD-8, RAMOS, or 293T BTK MUT (C481S) cells were treated with the synthesized compounds and measured for intracellular BTK protein levels by Western blotting. The protocol of the experiment using TMD-8 cells is as follows.
TMD-8 cells were resuspended in an RPMI1640 medium (Hyclone, SH30027.01, 10% FBS (Hyclone, SV30207.02), 1% penicillin-streptomycin (Welgene, LS 202-02) and the cell suspension was seeded at a density of 1×10^6 cells/mL in an amount of 1 mL per well into 12-well plates.
The 12-well plates were treated as follows. A 10 mM stock was 1/10 diluted in series with DMSO ([…]) to form final concentrations of 10, 1, 0.1, 0.01, 0.001, and 0.0001 mM. The compounds with such concentrations were applied to cells, followed by harvesting the cells 24 hours later. For a negative control, a 1/10 dilution of DMSO in the medium (3 mL DMSO+27 mL medium) was used.
The 1-mL cell culture in each well was passed many times through a pipette and then transferred into a 1.5-mL microtube before centrifugation (500 g, 5 min, 4° C.). The supernatant was discarded and the cell pellet was washed with PBS. After centrifugation (500 g, 5 min, 4° C.) again, the supernatant was discarded and the cell pellet was taken.
A lysis buffer was prepared as follows. RIPA buffer (Biosesang, RC2038-050-00)+0.5 mM PMSF (SIGMA, P7626)+1×Protease/Phosphatase Inhibitor (Cell signaling, 5872S) was added in an amount […] per well and left for 30 minutes on ice (vortexing at 0 and 30 minutes) before sonication (5 cycles of pulse for 10 seconds and rest for 30 seconds, 70% amplification). The supernatant obtained by centrifugation (15000 g, 15 min, 4° C.) was transferred into a new microtube. Cells in each well of 96-well plates were 1/2 diluted with the RIPA buffer and incubated at 37° C. for 30 minutes with […] of a 50:1 mixture of BCA reagents A and B in BCA Protein Assay Kit (iNtRON, 21071). After being cooled for 10 minutes, the 96-well plates were measured for absorbance at 562 nm on the BioTek, SYNERGY H1 microplate reader. Samples were prepared by protein quantification based on the absorbance measurements and then boiled at 70° C. for 10 minutes. The sample buffer used in the case was prepared by mixing a NuPAGE or a Bolt 4× sample buffer (Invitrogen) and its 10× sample reducing agent depending on the gel to be used, and protein dilution was made in a RIPI buffer.
The samples were loaded in the same amount into a NuPAGE or Bolt Bis-tris 4-12% gradient gel and allowed to run therein (200 V, 35 minutes). The separated proteins were transferred onto a […] NC membrane, using Trans-blot Turbo (BIO-RAD) (1.3 A constant, 25V limit, 15 minutes). The membrane was blocked at room temperature for 1 hour with skim milk or Intercept Blocking Buffer (LI-COR, 927-60001):0.1% TBST=1:1. The membrane was incubated with Anti BTK Rabbit (1:1,000 in 5% skim milk/0.2% TBST, size: 77 kDa, Cell signaling Technology) at 4° C. overnight O/N or at room temperature for 2 hours and with Anti GAPDH Rabbit (1:10,000 in 5% BSA/0.2% TBST, size: 36 kDa, GENETEX) and Anti β-actin mouse (1:10,000 in 5% BSA/0.2% TBST, RT, size: 43 kDa, GENETEX) at room temperature for 1 or 3 hours. Then, the membrane was washed three times with 0.5% TBST for 5 minutes each time before incubation with the second antibody Anti-Rabbit IgG (1:5,000 in 5% Skim milk/TBST, CST), IRDye® 800CW Goat anti-Rabbit IgG Secondary Antibody (1:10,000 in 5% skim/TBST, RT 45 min), or IRDye® 680RD Goat anti-Mouse IgG Secondary Antibody (1:10,000 in 5% skim/TBST, RT 45 min) for 45 minutes at room temperature in a rocker. The membrane was washed five times with 0.5% TBST for 5 minutes in each time, followed by detection with LI-COR, Odyssey. In this regard, the detection proceeded, as it was, for house-keeping genes while using SuperSignal West Pico PLUS Chemiluminescent Substrate or SuperSignal West femto Maximum Sensitivity Substrate for BTK detection. […]

T1 sequence (Q06187 whole entry): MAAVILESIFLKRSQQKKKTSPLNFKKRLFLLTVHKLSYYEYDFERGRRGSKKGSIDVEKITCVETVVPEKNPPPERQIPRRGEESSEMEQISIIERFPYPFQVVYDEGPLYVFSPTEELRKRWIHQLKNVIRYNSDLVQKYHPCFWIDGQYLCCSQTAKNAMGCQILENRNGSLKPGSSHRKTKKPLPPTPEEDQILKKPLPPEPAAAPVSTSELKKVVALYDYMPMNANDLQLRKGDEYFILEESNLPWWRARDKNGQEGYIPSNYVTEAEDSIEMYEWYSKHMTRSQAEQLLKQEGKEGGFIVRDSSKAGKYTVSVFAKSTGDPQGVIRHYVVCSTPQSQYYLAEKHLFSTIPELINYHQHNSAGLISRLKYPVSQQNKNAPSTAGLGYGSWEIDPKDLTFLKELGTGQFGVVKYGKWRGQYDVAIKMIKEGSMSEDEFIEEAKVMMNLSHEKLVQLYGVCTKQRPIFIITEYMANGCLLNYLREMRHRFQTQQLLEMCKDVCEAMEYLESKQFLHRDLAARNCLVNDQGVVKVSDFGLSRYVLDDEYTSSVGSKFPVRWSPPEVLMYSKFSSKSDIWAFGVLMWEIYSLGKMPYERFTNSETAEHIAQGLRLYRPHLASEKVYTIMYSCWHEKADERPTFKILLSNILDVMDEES

`Cc1cccc(C)c1Nc1nn(C)c2nc(Nc3ccc(C4CCN(CC5CCN(c6cc7c(cc6F)C(=O)N(C6CCC(=O)NC6=O)C7)CC5)CC4)cc3)ncc12` (centres unmarked) [Compound 272, 3-(5-(4-((4-(4-((3-((2,6-dimethylphenyl)amino)-1-methyl-1H-pyrazolo[3,4-d]pyrimidin-6-yl)amino)phenyl)piperidin-1-yl)methyl)piperidin-1-yl)-6-fluoro-1-oxoisoindolin-2-yl)piperidin-2,6-one] and `Cc1cccc(C)c1Nc1nn(C)c2nc(Nc3ccc(C4CCN(CC5CCN(c6ccc7c(c6)C(=O)N(C6CCC(=O)NC6=O)C7=O)CC5)CC4)cc3)ncc12` (centres unmarked) [Compound 165, 5-(4-((4-(4-((3-((2,6-Dimethylphenyl)amino)-1-methyl-1H-pyrazolo[3,4-d]pyrimidin-6-yl)amino)phenyl)piperidin-1-yl)methyl)piperidin-1-yl)-2-(2,6-dioxopiperidin-3-yl)isoindoline-1,3-dione] fall in the same range of DC50: 0.1 to 10 nM for the first, 0.1 to 10 nM for the second.

`Cc1cccc(C)c1Nc1nn(C)c2nc(Nc3ccc4c(c3)CN(C(=O)CN3CCN(c5ccc6c(c5)CN(C5CCC(=O)NC5=O)C6=O)CC3)CC4)ncc12` (centres unmarked) [Compound 104, 3-(5-(4-(2-(7-((3-((2,6-Dimethylphenyl)amino)-1-methyl-1H-pyrazolo[3,4-d]pyrimidin-6-yl)amino)-3,4-dihydroisoquinolin-2 (1H)-yl)-2-oxoethyl)piperazin-1-yl)-1-oxoisoindolin-2-yl)piperidin-2,6-one] and `Cc1cccc(C)c1Nc1nn(C)c2nc(Nc3ccc4c(c3)CN(CC3CN(C(=O)CN5CCN(c6ccc7c(c6)C(=O)N(C6CCC(=O)NC6=O)C7=O)CC5)C3)CC4)ncc12` (centres unmarked) [Compound 39, 5-(4-(2-(3-((7-((3-((2,6-Dimethylphenyl)amino)-1-methyl-1H-pyrazolo[3,4-d]pyrimidin-6-yl)amino)-3,4-dihydroisoquinolin-2 (1H)-yl)methyl)azetidin-1-yl)-2-oxoethyl)piperazin-1-yl)-2-(2,6-dioxopiperidin-3-yl)isoindoline-1,3-dione] fall in the same range of DC50: 0.1 to 10 nM for the first, 0.1 to 10 nM for the second.

`Cc1cccc(C)c1Nc1nn(C)c2nc(Nc3ccc4c(c3)CN(C(=O)C3CCN(C(=O)COc5ccc6c(c5)C(=O)N(C5CCC(=O)NC5=O)C6=O)CC3)CC4)ncc12` (centres unmarked) [Compound 43, 5-(2-(4-(7-((3-((2,6-Dimethylphenyl)amino)-1-methyl-1H-pyrazolo[3,4-d]pyrimidin-6-yl)amino)-1,2,3,4-tetrahydroisoquinoline-2-carbonyl)piperidin-1-yl)-2-oxoethoxy)-2-(2,6-dioxopiperidin-3-yl)isoindoline-1,3-dione] and `Cc1cccc(C)c1Nc1nn(C)c2nc(Nc3ccc4c(c3)CN(C(=O)C3(F)CCN(C(=O)CNc5ccc6c(c5)C(=O)N(C5CCC(=O)NC5=O)C6=O)CC3)CC4)ncc12` (centres unmarked) [Compound 247, 5-((2-(4-(7-((3-((2,6-Dimethylphenyl)amino)-1-methyl-1H-pyrazolo[3,4-d]pyrimidin-6-yl)amino)-1,2,3,4-tetrahydroisoquinoline-2-carbonyl)-4-fluoropiperidin-1-yl)-2-oxoethyl)amino)-2-(2,6-dioxopiperidin-3-yl)isoindoline-1,3-dione] fall in the same range of DC50: 0.1 to 10 nM for the first, 0.1 to 10 nM for the second.

`Cc1cccc(C)c1Nc1nn(C)c2nc(Nc3ccc4c(c3)CCN(CC3CCN(c5ccc6c(c5)C(=O)N(C5CCC(=O)NC5=O)C6=O)CC3)C4)ncc12` (centres unmarked) [Compound 109, 5-(4-((6-((3-((2,6-Dimethylphenyl)amino)-1-methyl-1H-pyrazolo[3,4-d]pyrimidin-6-yl)amino)-3,4-dihydroisoquinolin-2 (1H)-yl)methyl)piperidin-1-yl)-2-(2,6-dioxopiperidin-3-yl)isoindoline-1,3-dione] and `Cc1cccc(C)c1Nc1nn(C)c2nc(Nc3ccc4c(c3)CN(CC3CCN(CC5CN(c6ccc7c(c6)C(=O)N(C6CCC(=O)NC6=O)C7=O)C5)CC3)CC4)ncc12` (centres unmarked) [Compound 50, 5-(3-((4-((7-((3-((2,6-Dimethylphenyl)amino)-1-methyl-1H-pyrazolo[3,4-d]pyrimidin-6-yl)amino)-3,4-dihydroisoquinolin-2 (1H)-yl)methyl)piperidin-1-yl)methyl)azetidin-1-yl)-2-(2,6-dioxopiperidin-3-yl)isoindoline-1,3-dione] fall in the same range of DC50: 10 to 1000 nM for the first, 10 to 1000 nM for the second.

`Cc1cccc(C)c1Nc1nn(C)c2nc(Nc3ccc(C4=CCN(CC5CCN(c6ccc7c(c6)C(=O)N(C6CCC(=O)NC6=O)C7=O)CC5)CC4)cc3)ncc12` (centres unmarked) [Compound 230, 5-(4-((4-(4-((3-((2,6-Dimethylphenyl)amino)-1-methyl-1H-pyrazolo[3,4-d]pyrimidin-6-yl)amino)phenyl)-3,6-dihydropyridin-1 (2H)-yl)methyl)piperidin-1-yl)-2-(2,6-dioxopiperidin-3-yl)isoindoline-1,3-dione] and `Cc1cccc(C)c1Nc1nn(C)c2nc(Nc3ccc(C4CCN(CC5CN(c6ccc7c(c6)C(=O)N(C6CCC(=O)NC6=O)C7=O)C5)CC4)cc3)ncc12` (centres unmarked) [Compound 169, 5-(3-((4-(4-((3-((2,6-Dimethylphenyl)amino)-1-methyl-1H-pyrazolo[3,4-d]pyrimidin-6-yl)amino)phenyl)piperidin-1-yl)methyl)azetidin-1-yl)-2-(2,6-dioxopiperidin-3-yl)isoindoline-1,3-dione] fall in the same range of DC50: 0.1 to 10 nM for the first, 0.1 to 10 nM for the second.

`Cc1cccc(C)c1Nc1nn(C)c2nc(Nc3ccc(C4CCN(C(=O)C5CCN(c6ccc7c(c6)n(C)c(=O)n7C6CCC(=O)NC6=O)CC5)CC4)cc3)ncc12` (centres unmarked) [Compound 262, 3-(5-(4-(4-(4-((3-((2,6-Dimethylphenyl)amino)-1-methyl-1H-pyrazolo[3,4-d]pyrimidin-6-yl)amino)phenyl)piperidine-1-carbonyl)piperidin-1-yl)-3-methyl-2-oxo-2,3-dihydro-1H-benzo[d]imidazol-1-yl)piperidin-2,6-one] and `Cc1cccc(C)c1Nc1nn(C)c2nc(Nc3ccc(N4CCN(CC5CN(c6ccc7c(c6)C(=O)N(C6CCC(=O)NC6=O)C7=O)C5)C[C@H]4C)cc3)ncc12` (stereo partly drawn) [Compound 184, 5-(3-(((R)-4-(4-((3-((2,6-Dimethylphenyl)amino)-1-methyl-1H-pyrazolo[3,4-d]pyrimidin-6-yl)amino)phenyl)-3-methylpiperazin-1-yl)methyl)azetidin-1-yl)-2-(2,6-dioxopiperidin-3-yl)isoindoline-1,3-dione] fall in the same range of DC50: 0.1 to 10 nM for the first, 0.1 to 10 nM for the second.

First: COCCOc1cc(C)c(Nc2nn(C)c3nc(Nc4ccc5c(c4)CN(CC4CCN(c6ccc7c(c6)C(=O)N(C6CCC(=O)NC6=O)C7=O)CC4)CC5)ncc23)c(C)c1 (centres unmarked) [Compound 76, 2-(2,6-Dioxopiperidin-3-yl)-5-(4-((7-((3-((4-(2-methoxyethoxy)-2,6-dimethylphenyl)amino)-1-methyl-1H-pyrazolo[3,4-d]pyrimidin-6-yl)amino)-3,4-dihydroisoquinolin-2 (1H)-yl)methyl)piperidin-1-yl)isoindoline-1,3-dione]
Second: Cc1cccc(C)c1Nc1nn(C)c2nc(Nc3ccc4c(c3)CN(CC(=O)N3CCC(Oc5ccc6c(c5)C(=O)N(C5CCC(=O)NC5=O)C6)CC3)CC4)ncc12 (centres unmarked) [Compound 116, 3-(6-((1-(2-(7-((3-((2,6-dimethylphenyl)amino)-1-methyl-1H-pyrazolo[3,4-d]pyrimidin-6-yl)amino)-3,4-dihydroisoquinolin-2 (1H)-yl)acetyl)piperidin-4-yl)oxy)-1-oxoisoindolin-2-yl)piperidin-2,6-one]
The DC50 of the first is lower: 10 to 1000 nM for the first, 1000 to 10000 nM for the second.
